Data as given in patent publication US10238658B2, “1-pyrazolyl-3-(4-((2-anilinopyrimidin-4-yl) oxy) napththalen-1-yl) ureas as p38 MAP kinase inhibitors” (Respivert Limited, priority 2011, dated 2019).

How the values were obtained:
Assay type in all cases: cell-based
TNFα [1] = assay: LPS-induced TNFα release in THP-1 cells; conditions: Homo sapiens, THP-1, THP1 cells
Protocol: THP-1 cells, a human monocytic cell line, were stimulated with 3 μg/mL of LPS (from E. Coli; 0111:B4, Sigma) for 4 hr and the supernatant collected for determination of the TNFα concentration by sandwich ELISA (Duo-set, R&D systems). The inhibition of TNFα production was calculated at each concentration by comparison with vehicle control.

TNFα [2] = assay: LPS-induced TNFα release in d-U937 cells; conditions: Homo sapiens, dU937, dU937 cells; relative to 10 μg/mL BIRB796; read-out: LPS Induced Release TNFα REC50 (dU937)
Protocol: (§1) U937 cells, a human monocytic cell line, were differentiated into macrophage-type cells by incubation with PMA (100 ng/mL) for 48 to 72 hr. Cells were pre-incubated with final concentrations of test compound for 2 hr and were then stimulated with LPS (0.1 μg/mL; from E. Coli: O111:B4, Sigma) for 4 hr. The supernatant was collected for determination of TNFα and IL-8 concentrations by sandwich ELISA (Duo-set, R&D systems). […] The relative 50% effective concentration (REC50) was determined from the resultant concentration-response curve. The inhibition of IL-8 production was calculated at each concentration of test compound by comparison with vehicle control.

IL-8 [3] = assay: LPS-induced IL-8 release in d-U937 cells; conditions: Homo sapiens, dU937, dU937 cells
Protocol: as §1

ICAM-1 = assay: Poly I:C-induced ICAM-1 expression in BEAS2B cells; conditions: Homo sapiens, BEAS-2B, read-out: PolyIC/ICAM1 IC50 (BEAS2B)
Protocol: Poly I:C was used in these studies as a simple, RNA virus mimic. Poly I:C-Oligofectamine mixture (1 μg/mL Poly I:C, ±2% Oligofectamine, 25 μL; Invivogen Ltd., San Diego, Calif., and Invitrogen, Carlsbad, Calif., respectively) was transfected into BEAS2B cells (human bronchial epithelial cells, ATCC). Cells were pre-incubated with final concentrations of test compounds for 2 hr and the level of ICAM-1 expression on the cell surface was determined by cell-based ELISA. At a time point 18 hr after poly I:C transfection, cells were fixed with 4% formaldehyde in PBS (100 μL) and then endogenous peroxidase was quenched by the addition of washing buffer (100 μL, 0.05% Tween in PBS: PBS-Tween) containing 0.1% sodium azide and 1% hydrogen peroxide. Cells were washed with wash-buffer (3×200 μL). and after blocking the wells with 5% milk in PBS-Tween (100 μL) for 1 hr, the cells were incubated with anti-human ICAM-1 antibody (50 μL; Cell Signaling Technology, Danvers, Mass.) in 1% BSA PBS overnight at 4° C.
The cells were washed with PBS-Tween (3×200 μL) and incubated with the secondary antibody (100 μL; HRP-conjugated anti-rabbit IgG, Dako Ltd., Glostrup, Denmark). The cells were then incubated with of substrate (50 μL) for 2-20 min, followed by the addition of stop solution (50 μL, 1N H2SO4). The ICAM-1 signal was detected by reading […] the absorbance at 450 nm against a reference wavelength of 655 nm using a spectrophotometer. The cells were then washed with PBS-Tween (3×200 μL) and total cell numbers in each well were determined by reading absorbance at 595 nm after Crystal Violet staining (50 μL of a 2% solution in PBS) and elution by 1% SDS solution (100 μL) in distilled water. The measured OD 450-655 readings were corrected for cell number by dividing with the OD595 reading in each well. The inhibition of ICAM-1 expression was calculated at each concentration of test compound by comparison with vehicle control.

IL-8 [4] = assay: Rhinovirus-induced IL-8 release in BEAS2B cells; conditions: Homo sapiens, BEAS-2B, at 0.04 μg/mL; read-out: HRV IL-8 (BEAS2B) % inhibition
Protocol: Human rhinovirus RV16 was obtained from the American Type Culture Collection (Manassas, Va.). Viral stocks were generated by infecting Hela cells with HRV until 80% of the cells were cytopathic.
BEAS2B cells were infected with HRV at an MOI of 5 and incubated for 2 hr at 33° C. with gentle shaking for to promote absorption. The cells were then washed with PBS, fresh media added and the cells were incubated for a further 72 hr. The supernatant was collected for assay of IL-8 concentrations using a Duoset ELISA development kit (R&D systems, Minneapolis, Minn.). […]

HRV16 = HRV16 induced CPE in MRC5 cells; conditions: Human rhinovirus sp., HRV16, MRC5, at 0.04 μg/mL; read-out: HRV CPE (MRC5) % inhibition
Protocol: The supernatants were aspirated, and then fresh media added followed by incubation for 4 days. Where appropriate, cells were pre-incubated with compound or DMSO for 2 hr, and the compounds and DMSO added again after washout of the virus.
The percentage inhibition for each well was calculated. The IC50 value was calculated from the concentration-response curve generated by the serial dilutions of the test compounds.

PBMC = assay: Cell mitosis assay; conditions: Homo sapiens; for inhibition at 5 µg/mL: read-out: Mitosis Assay % inhibition in PBMC Cells at concn 5 μg/mL
Protocol: Peripheral blood mononucleocytes (PBMCs) from healthy subjects were separated from whole blood (Quintiles, London, UK) using a density gradient (Histopaque®-1077, Sigma-Aldrich, Poole, UK). The PBMCs (3 million cells per sample) were subsequently treated with 2% PHA (Sigma-Aldrich, Poole, UK) for 48 hr, followed by a 20 hr exposure to varying concentrations of test compounds. At 2 hr before collection, PBMCs were treated with demecolcine (0.1 μg/mL; Invitrogen, Paisley, UK,) to arrest cells in metaphase. To observe mitotic cells, PBMCs were permeabilised and fixed by adding Intraprep (50 μL; Beckman Coulter, France), and stained with anti-phospho-histone 3 ([…]; #9701; Cell Signalling, Danvers, Mass.) and propidium iodide (1 mg/mL; Sigma-Aldrich, Poole, UK,) as previously described (Muehlbauer P. A. and Schuler M. J., Mutation Research, 2003, 537:117-130). Fluorescence was observed using an ATTUNE flow cytometer (Invitrogen, Paisley, UK), gating for lymphocytes.

SMILES	IC50 (TNFα [1]) [nM]	EC50 (TNFα [2]) [nM]	IC50 (IL-8 [3]) [nM]	IC50 (ICAM-1) [nM]	inhibition at 0.04 µg/mL (IL-8 [4]) [%]	inhibition at 0.04 µg/mL (HRV16) [%]	inhibition at 5 µg/mL (PBMC) [%]	inhibition at 1 µg/mL (PBMC; read-out: Mitosis Assay % inhibition in PBMC Cells at concn 1 μg/mL) [%]
COc1ccccc1Nc1nccc(Oc2ccc(NC(=O)Nc3cc(C(C)(C)C)nn3-c3ccc(C)cc3)c3ccccc23)n1 [Example 5, 1-(3-(tert-butyl)-1-(p-tolyl)-1H-pyrazol-5-yl)-3-(4-((2-((2-methoxyphenyl)amino)pyrimidin-4-yl)oxy)naphthalen-1-yl)urea]	66	2.9	6.2	17	49	91	–	–
COc1ccc(-n2nc(C(C)(C)C)cc2NC(=O)Nc2ccc(Oc3ccnc(Nc4ccccc4)n3)c3ccccc23)cc1 [Example 7, 1-(3-(tert-butyl)-1-(4-methoxyphenyl)-1H-pyrazol-5-yl)-3-(4-((2-(phenylamino)pyrimidin-4-yl)oxy)naphthalen-1-yl)urea]	10	1.7	2.1	–	100	≤ 0	10.2	–
COc1ccc(Nc2nccc(Oc3ccc(NC(=O)Nc4cc(C(C)(C)C)nn4-c4ccc(C)cc4)c4ccccc34)n2)c(OC)c1 [Example 8, 1-(3-(tert-butyl)-1-(p-tolyl)-1H-pyrazol-5-yl)-3-(4-((2-((2,4-dimethoxyphenyl)amino)pyrimidin-4-yl)oxy)naphthalen-1-yl)urea]	225	227	235	–	100	100	–	15.6
Cc1ccc(-n2nc(C(C)(C)C)cc2NC(=O)Nc2ccc(Oc3ccnc(Nc4ccc(O)cc4)n3)c3ccccc23)cc1 [Example 9, 1-(3-(tert-butyl)-1-(p-tolyl)-1H-pyrazol-5-yl)-3-(4-((2-((4-hydroxyphenyl)amino)pyrimidin-4-yl)oxy)naphthalen-1-yl)urea]	1.3	1.7	2.2	3	100	100	50.3	–
Cc1ccc(-n2nc(C(C)(C)C)cc2NC(=O)Nc2ccc(Oc3ccnc(Nc4ccc(Cl)cc4)n3)c3ccccc23)cc1 [Example 16, 1-(3-(tert-butyl)-1-(p-tolyl)-1H-pyrazol-5-yl)-3-(4-((2-((4-chlorophenyl)amino)pyrimidin-4-yl)oxy)naphthalen-1-yl)urea]	4.1	1.1	0.31	36	100	10	–	–
Cc1ccc(-n2nc(C(C)(C)C)cc2NC(=O)Nc2ccc(Oc3ccnc(Nc4ccc(Cl)cc4C)n3)c3ccccc23)cc1 [Example 18, 1-(3-(tert-butyl)-1-(p-tolyl)-1H-pyrazol-5-yl)-3-(4-((2-((4-chloro-2-methylphenyl)amino)pyrimidin-4-yl)oxy)naphthalen-1-yl)urea]	157	13	15	28	100	≤ 0	–	–
Cc1ccc(-n2nc(C(C)(C)C)cc2NC(=O)Nc2ccc(Oc3ccnc(Nc4ccc(O)cc4C)n3)c3ccccc23)cc1 [Example 24, 1-(3-(tert-butyl)-1-(p-tolyl)-1H-pyrazol-5-yl)-3-(4-((2-((4-hydroxy-2-methylphenyl)amino)pyrimidin-4-yl)oxy)naphthalen-1-yl)urea]	0.8	2.3	86	5	100	41	–	–
Cc1ccc(-n2nc(C(C)(C)C)cc2NC(=O)Nc2ccc(Oc3ccnc(Nc4ccc(C)c(O)c4)n3)c3ccccc23)cc1 [Example 26, 1-(3-(tert-butyl)-1-(p-tolyl)-1H-pyrazol-5-yl)-3-(4-((2-((3-hydroxy-4-methylphenyl)amino)pyrimidin-4-yl)oxy)naphthalen-1-yl)urea]	1.9	4.1	6.6	8.4	100	69	–	–
COc1ccc(Nc2nccc(Oc3ccc(NC(=O)Nc4cc(C(C)(C)C)nn4-c4ccc(C)cc4)c4ccccc34)n2)cc1OC [Example 27, 1-(3-(tert-butyl)-1-(p-tolyl)-1H-pyrazol-5-yl)-3-(4-((2-((3,4-dimethoxyphenyl)amino)pyrimidin-4-yl)oxy)naphthalen-1-yl)urea]	0.5	0.54	2	–	100	51	11.2	–
Cc1ccc(-n2nc(C(C)(C)C)cc2NC(=O)Nc2ccc(Oc3ccnc(Nc4ccc(O)c(F)c4)n3)c3ccccc23)cc1 [Example 29, 1-(3-(tert-butyl)-1-(p-tolyl)-1H-pyrazol-5-yl)-3-(4-((2-((3-fluoro-4-hydroxyphenyl)amino)pyrimidin-4-yl)oxy)naphthalen-1-yl)urea]	1.6	11	2.3	2.8	100	13	–	–
Cc1ccc(-n2nc(C(C)(C)C)cc2NC(=O)Nc2ccc(Oc3ccnc(Nc4ccc(O)cc4O)n3)c3ccccc23)cc1 [Example 32, 1-(3-(tert-butyl)-1-(p-tolyl)-1H-pyrazol-5-yl)-3-(4-((2-((2,4-dihydroxyphenyl)amino)pyrimidin-4-yl)oxy)naphthalen-1-yl)urea]	14	12	9.7	–	100	26	33	–
COc1ccc(-n2nc(C(C)(C)C)cc2NC(=O)Nc2ccc(Oc3ccnc(Nc4ccc(O)cc4)n3)c3ccccc23)cc1 [Example 33, 1-(3-(tert-butyl)-1-(4-methoxyphenyl)-1H-pyrazol-5-yl)-3-(4-((2-((4-hydroxyphenyl)amino)pyrimidin-4-yl)oxy)naphthalen-1-yl)urea]	0.5	7.4	6.3	–	100	44	67.2	–
